Experimental data: ChEMBL document CHEMBL1152034, “Solid phase synthesis of phosphinic acid endothelin converting enzyme inhibitors” (Bioorg Med Chem Lett, 1996)

Columns and labels:
Neprilysin = Neprilysin (Homo sapiens, UniProt P08473); test: Inhibition of neutral endopeptidase in human umbilical vein endothelial cells; format: cell-based, Endothelial cell
[1] = target: T1, Endothelin-converting enzyme 1 (Homo sapiens, UniProt P42892); test: Inhibition of endothelin-converting enzyme in human umbilical vein endothelial cells; format: cell-based, Endothelial cell
T1 sequence (P42892 whole entry): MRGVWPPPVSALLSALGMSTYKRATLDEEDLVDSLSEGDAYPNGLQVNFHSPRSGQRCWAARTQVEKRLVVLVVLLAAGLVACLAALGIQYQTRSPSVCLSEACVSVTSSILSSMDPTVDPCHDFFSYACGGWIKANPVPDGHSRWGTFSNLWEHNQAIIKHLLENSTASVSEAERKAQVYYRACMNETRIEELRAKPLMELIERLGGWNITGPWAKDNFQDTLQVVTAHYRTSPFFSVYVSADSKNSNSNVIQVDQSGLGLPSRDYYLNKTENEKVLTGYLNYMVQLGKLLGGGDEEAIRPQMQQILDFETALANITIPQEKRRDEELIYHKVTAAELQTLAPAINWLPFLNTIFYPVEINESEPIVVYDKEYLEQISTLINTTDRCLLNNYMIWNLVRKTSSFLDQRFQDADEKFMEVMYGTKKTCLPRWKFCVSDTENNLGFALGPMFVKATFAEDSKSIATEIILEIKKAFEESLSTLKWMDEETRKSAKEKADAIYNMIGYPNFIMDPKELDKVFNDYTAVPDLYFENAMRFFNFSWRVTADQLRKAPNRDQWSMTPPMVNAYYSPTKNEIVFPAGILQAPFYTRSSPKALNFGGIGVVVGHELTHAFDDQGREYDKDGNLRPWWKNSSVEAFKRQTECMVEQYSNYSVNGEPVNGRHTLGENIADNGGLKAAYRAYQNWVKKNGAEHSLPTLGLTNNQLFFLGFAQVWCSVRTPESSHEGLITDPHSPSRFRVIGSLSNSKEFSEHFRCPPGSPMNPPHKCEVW

Sequence of Neprilysin (P08473 whole entry): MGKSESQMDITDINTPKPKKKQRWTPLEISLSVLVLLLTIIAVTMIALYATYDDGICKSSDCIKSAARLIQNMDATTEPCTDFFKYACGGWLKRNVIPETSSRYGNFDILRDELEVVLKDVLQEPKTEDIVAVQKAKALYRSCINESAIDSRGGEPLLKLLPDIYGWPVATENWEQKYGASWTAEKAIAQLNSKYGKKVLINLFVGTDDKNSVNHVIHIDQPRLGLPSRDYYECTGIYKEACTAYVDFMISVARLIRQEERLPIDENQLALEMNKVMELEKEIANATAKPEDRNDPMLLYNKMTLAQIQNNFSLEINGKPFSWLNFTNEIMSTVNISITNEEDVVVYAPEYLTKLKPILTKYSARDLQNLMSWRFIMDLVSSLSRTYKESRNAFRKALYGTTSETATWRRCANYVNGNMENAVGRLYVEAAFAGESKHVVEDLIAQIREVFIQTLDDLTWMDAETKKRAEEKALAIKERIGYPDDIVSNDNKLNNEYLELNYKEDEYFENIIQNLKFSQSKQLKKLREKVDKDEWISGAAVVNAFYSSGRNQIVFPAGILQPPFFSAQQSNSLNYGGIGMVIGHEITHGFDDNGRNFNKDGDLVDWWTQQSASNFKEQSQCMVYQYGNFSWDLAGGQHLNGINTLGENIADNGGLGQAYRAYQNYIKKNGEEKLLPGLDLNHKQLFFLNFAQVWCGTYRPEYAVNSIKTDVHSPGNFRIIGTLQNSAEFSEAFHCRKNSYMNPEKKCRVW

| SMILES | IC50 (Neprilysin) [µM] | IC50 [1] [µM] | IC50 (Neprilysin; endothelial cell) [µM] | IC50 ([1]; endothelial cell) [µM] |
| --- | --- | --- | --- | --- |
| CC(C)[C@@H](NC(=O)C(Cc1ccccc1)CP(=O)(O)[C@H](Cc1ccccc1)NC(=O)OCc1ccccc1)C(=O)O (mixture of isomers) | – | 60 | – | – |
| O=C(N[C@@H](Cc1ccccc1)P(=O)(O)CC(Cc1ccccc1)C(=O)N[C@H](Cc1ccccc1)C(=O)O)OCc1ccccc1 (stereo partly drawn) | > 60 | > 100 | – | – |
| NC(=O)CCC(NC(=O)C(Cc1ccccc1)CP(=O)(O)[C@H](Cc1ccccc1)NC(=O)OCc1ccccc1)C(=O)O (stereo in doubt) | > 100 | > 100 | – | – |
| CC(C)C(NC(=O)C(Cc1ccccc1)CP(=O)(O)[C@H](Cc1ccccc1)NC(=O)OCc1ccccc1)C(=O)O (stereo in doubt) | – | 80 | – | – |
| O=C(O)CC[C@@H](NC(=O)C(Cc1ccccc1)CP(=O)(O)[C@H](Cc1ccccc1)NC(=O)OCc1ccccc1)C(=O)O (mixture of isomers) | – | > 100 | – | – |
| O=C(O)CC(NC(=O)C(Cc1ccccc1)CP(=O)(O)[C@H](Cc1ccccc1)NC(=O)OCc1ccccc1)C(=O)O (mixture of isomers) | – | 30 | – | – |
| CC(C)[C@@H](NC(=O)C(Cc1ccccc1)CP(=O)(O)[C@H](Cc1ccccc1)NC(=O)OCc1ccccc1)C(=O)O (stereo in doubt) | – | > 100 | – | – |
| NCCCCC(NC(=O)C(Cc1ccccc1)CP(=O)(O)[C@H](Cc1ccccc1)NC(=O)OCc1ccccc1)C(=O)O (stereo in doubt) | – | 60 | > 100 | – |
| NC(=O)CC(NC(=O)C(Cc1ccccc1)CP(=O)(O)[C@H](Cc1ccccc1)NC(=O)OCc1ccccc1)C(=O)O (mixture of isomers) | 10 | 20 | – | – |
| CC(C)CC(NC(=O)C(Cc1ccccc1)CP(=O)(O)[C@H](Cc1ccccc1)NC(=O)OCc1ccccc1)C(=O)O (mixture of isomers; form 2) | – | 20 | – | – |
| N=C(N)NCCC[C@@H](NC(=O)C(Cc1ccccc1)CP(=O)(O)[C@H](Cc1ccccc1)NC(=O)OCc1ccccc1)C(=O)O (mixture of isomers) | > 60 | > 100 | – | – |
| O=C(O)CNC(=O)C(Cc1ccccc1)CP(=O)(O)[C@H](Cc1ccccc1)NC(=O)OCc1ccccc1 (stereo partly drawn) | 0.9 | 80 | – | – |
| NCCCCC(NC(=O)C(Cc1ccccc1)CP(=O)(O)[C@H](Cc1ccccc1)NC(=O)OCc1ccccc1)C(=O)O (mixture of isomers) | > 100 | 30 | – | – |
| C[C@H](O)[C@@H](NC(=O)C(Cc1ccccc1)CP(=O)(O)[C@H](Cc1ccccc1)NC(=O)OCc1ccccc1)C(=O)O (single isomer, unassigned) | 50 | – | – | > 100 |
| CC(C)CC(NC(=O)C(Cc1ccccc1)CP(=O)(O)[C@H](Cc1ccccc1)NC(=O)OCc1ccccc1)C(=O)O (mixture of isomers; form 1) | – | 23 | – | – |
| O=C(O)CCNC(=O)C(Cc1ccccc1)CP(=O)(O)[C@H](Cc1ccccc1)NC(=O)OCc1ccccc1 (mixture of isomers) | 2.3 | 50 | – | – |
| O=C(O)CCC(NC(=O)C(Cc1ccccc1)CP(=O)(O)[C@H](Cc1ccccc1)NC(=O)OCc1ccccc1)C(=O)O (mixture of isomers) | – | 25 | – | – |
| C[C@H](O)[C@@H](NC(=O)C(Cc1ccccc1)CP(=O)(O)[C@H](Cc1ccccc1)NC(=O)OCc1ccccc1)C(=O)O (stereo in doubt) | > 100 | > 100 | – | – |
| CC(C)[C@H](NC(=O)C(Cc1ccccc1)CP(=O)(O)[C@H](Cc1ccccc1)NC(=O)OCc1ccccc1)C(N)=O (stereo partly drawn) | – | 20 | – | – |

Continued by falling IC50 [1], values first:

| IC50 (Neprilysin) [µM] | IC50 [1] [µM] | IC50 (Neprilysin; endothelial cell) [µM] | IC50 ([1]; endothelial cell) [µM] | SMILES |
| --- | --- | --- | --- | --- |
| 10 | 20 | – | – | O=C(N[C@@H](Cc1ccccc1)P(=O)(O)CC(Cc1ccccc1)C(=O)NC(Cc1c[nH]cn1)C(=O)O)OCc1ccccc1 (mixture of isomers) |
| – | 12 | – | – | CCCCC(NC(=O)C(Cc1ccccc1)CP(=O)(O)[C@H](Cc1ccccc1)NC(=O)OCc1ccccc1)C(=O)O (mixture of isomers) |
| 2.3 | 12 | – | – | O=C(N[C@@H](Cc1ccccc1)P(=O)(O)CC(Cc1ccccc1)C(=O)NC(Cc1ccc(O)cc1)C(=O)O)OCc1ccccc1 (mixture of isomers) |
| 0.8 | 10 | – | – | O=C(N[C@@H](Cc1ccccc1)P(=O)(O)CC(Cc1ccccc1)C(=O)NC(Cc1ccccc1)C(=O)O)OCc1ccccc1 (mixture of isomers) |
| 0.3 | 8 | – | – | CC(NC(=O)C(Cc1ccccc1)CP(=O)(O)[C@H](Cc1ccccc1)NC(=O)OCc1ccccc1)C(=O)O (mixture of isomers) |
| 1 | 7 | – | – | O=C(N[C@@H](Cc1ccccc1)P(=O)(O)CC(Cc1ccccc1)C(=O)NC(Cc1ccc(O)cc1)C(=O)O)OCc1ccccc1 (single isomer, unassigned) |
| 15 | 6 | – | – | NC(=O)CCC(NC(=O)C(Cc1ccccc1)CP(=O)(O)[C@H](Cc1ccccc1)NC(=O)OCc1ccccc1)C(=O)O (mixture of isomers) |
| 10 | 5.8 | – | – | O=C(N[C@@H](Cc1ccccc1)P(=O)(O)CC(Cc1ccccc1)C(=O)NC(Cc1c[nH]c2ccccc12)C(=O)O)OCc1ccccc1 (stereo in doubt) |
| 10 | 5 | – | – | CC(O)C(NC(=O)C(Cc1ccccc1)CP(=O)(O)[C@H](Cc1ccccc1)NC(=O)OCc1ccccc1)C(=O)O (mixture of isomers) |
| 0.8 | 4.3 | – | – | N=C(N)NCCCC(NC(=O)C(Cc1ccccc1)CP(=O)(O)[C@H](Cc1ccccc1)NC(=O)OCc1ccccc1)C(=O)O (mixture of isomers) |
| – | 4 | – | – | CCC(C)C(NC(=O)C(Cc1ccccc1)CP(=O)(O)[C@H](Cc1ccccc1)NC(=O)OCc1ccccc1)C(=O)O (mixture of isomers) |
| – | 1.7 | – | – | CC(C)C(NC(=O)C(Cc1ccccc1)CP(=O)(O)[C@H](Cc1ccccc1)NC(=O)OCc1ccccc1)C(=O)O (mixture of isomers) |
| 1.4 | 1.1 | – | – | O=C(N[C@@H](Cc1ccccc1)P(=O)(O)CC(Cc1ccccc1)C(=O)NC(Cc1c[nH]c2ccccc12)C(=O)O)OCc1ccccc1 (mixture of isomers) |
| – | 0.4 | – | – | O=C(O)[C@H](Cc1c[nH]c2ccccc12)NC(=O)[C@H](Cc1ccccc1)NP(=O)(O)CCCCc1ccccc1 |
